Test results reported in patent publication US6545131B1, “Tissue specific prodrug” (priority 1997, dated 2003).
Starred links: 1 amine or outer side, 2 acyl side, 3 side chain; linkers in the order of their positions; H or OH if unused. Residues, ends and D or L forms follow the SMILES beside them. *: point of attachment. AMC = Cc1cc(=O)oc2cc(N*)ccc12; Morpholide = C1CN(*)CCO1; CO = O=C([*:1])[*:2]

What was measured:
[1] = biological target: T1, PSA (prostate specific antigen) (Homo sapiens, UniProt P07288); experiment: Cleavage of AMC-labelled peptide substrates by purified PSA (fluorescence of released AMC; Lineweaver-Burke kinetics); assay type: biochemical; conditions: for picomoles of peptide cleaved/min/200 picomoles protease: PSA: pH 7.8, SKLQ, KLQ, LQ in 1.4% acetonitrile/buffer, Q-AMC in 0.2% formic acid/buffer; for Kcat / Km: PSA substrate, PSA assay buffer pH 7.8, Lineweaver-Burke
T1 construct: PSA was purified from human seminal plasma; from tissue; host or cells: human seminal plasma
T1 sequence (P07288 25-261): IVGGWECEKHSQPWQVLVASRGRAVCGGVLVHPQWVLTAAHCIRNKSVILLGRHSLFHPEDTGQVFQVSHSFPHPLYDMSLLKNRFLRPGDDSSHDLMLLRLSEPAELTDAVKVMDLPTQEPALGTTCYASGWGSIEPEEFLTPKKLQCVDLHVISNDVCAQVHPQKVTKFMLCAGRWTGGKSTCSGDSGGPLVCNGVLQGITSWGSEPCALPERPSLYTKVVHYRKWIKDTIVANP
Experimental: (§1) The peptides discussed herein were custom synthesized by Enzyme Systems Products (Dublin, Calif.) and, after HPLC separation and purification to >95%, the molecular weights were confirmed by mass spectroscopy. All peptides had morpholinocarbonyl protecting the amino terminus and 7-amino-4-methylcoumarin (AMC) attached via an amide bond to the carboxyl group of the carboxy-terminal amino acid. Peptides were first dissolved in distilled water (5 mM) and then diluted into PSA assay buffer (50 mM Tris/0.1M NaCl pH 7.8). The glutamine-AMC peptide had the amino terminus and side chain amine unprotected and was obtained from Bachem (Torrance, Calif.).
(§2) PSA was purified from human seminal plasma as described in Christensson, et al. Eur. J. Biochem. 194:755-765, (1990). Plasmin, urokinase, tissue plasminogen activator (TPA), human plasma and porcine pancreatic kallikrein and a 1-antichymotrypsin were obtained from Calbiochem (San Diego, Calif.). All other proteases were obtained from Sigma Chemical Co. (St. Louis, Mo.). Mouse serum was obtained from East Acres Biologicals (South Bridge, Mass.). Goat and calf sera were obtained from Gibco BRL (Grand Island, N.Y.). Rat serum was obtained in-house from sacrificed animals. Human serum was obtained from volunteers.
(§3) Cleavage was studied by measuring fluorescence change secondary to AMC release. Fluorescence detection was carried out with a Fluoroskan II 96 well fluorometric plate reader (ICN Biomedicals, Costa Mesa, Calif.), with excitation wavelength 355 nm and emission wavelength 460 nm. Data were collected and analyzed using Deltasoft III software (Biometallics, Princeton, N.J.). All reactions were performed at room temperature by the addition of substrate and proteases into PSA buffer, described below, in a final volume of 200 μL. The results were determined from the initial linear increase of fluorescence and were expressed as the picomoles of AMC released per minute based upon comparison to a standard curve of the fluorescence of known amounts of AMC (i.e., fluorescence was linear form 20 to 300 picomoles of AMC). The data were analyzed by Lineweaver-Burke reciprocal plots to determine the Michaelis-Menten constant (i.e., Km) expressed as the amount of substrate needed to saturate half of the enzyme and the catalytic rate constant (i.e., kcat) expressed as the amount of substrate converted to product per time per amount of enzyme.
(§4) Each assay contains 200 picomoles of the particular protease and 0.2 mM concentration of the particular substrate (i.e., 40,000 picomoles/200 μL of assay volume). The amino acid sequences expressed in one letter amino acid code represent the following amino acid sequences in the three letter amino acid code: EHSSKLQ (Glu-His-Ser-Ser-Lys-Leu-Gln; SEQ ID NO:10), QNKISYQ (Gln-Asn-Lys-Ile-Ser-Tyr-Gln; SEQ ID NO:11), ENKISYQ (Glu-Asn-Lys-Ile-Ser-Tyr-Gln; SEQ ID NO:12), and ATKSKQH (Ala-Thr-Lys-Ser-Lys-Gln-His; SEQ ID NO:13). Determinations listed in the table were carried out with substrates at 0.2 mM concentration in the PSA assay buffer (50 mM Tris/0.1M NaCl pH 7.8). The entry “UD” stands for “undetectable” and means that at most, 0.1 pmole of substrate cleavage per minute per 200 pmole protease took place. Asterisks represent experiments not performed. Abbreviations are as follows: PSA (prostate specific antigen), Chymo (chymotrypsin), Urokin (urokinase), TPA (tissue plasminogen activator), Thromb (thrombin), Kallik (human kallikrein, hK1).
The data in Table 2 are the results of kinetic experiments with the peptide substrates used in Example 1. Experimental details are found in Example 1.
The amino acid sequences expressed in one letter amino acid code represent the following amino acid sequences in the three letter amino acid code: EHSSKLQ (Glu-His-Ser-Ser-Lys-Leu-Gln; SEQ ID NO:10), HSSKLQ (His-Ser-Ser-Lys-Leu-Gln; SEQ ID NO:7), SKLQ (Ser-Lys-Leu-Gln; SEQ ID NO:1), and ATKSKQH (Ala-Thr-Lys-Ser-Lys-Gln-His; SEQ ID NO:13). […]

porcine liver esterase = experiment: PSA substrate cleavage by purified intracellular protease; assay type: biochemical; conditions: 0.2 mM substrate, pH 7.8; SKLQ, KLQ, LQ in 1.4% acetonitrile/buffer, Q-AMC in 0.2% formic acid/buffer
Experimental: as §3
(§5) A family of peptide substrates based upon the EHSSKLQ (SEQ ID NO:10) sequence was assayed for activity for the intracellular proteases, and the results given in Table 4.
(§6) The amino acid sequences expressed in one letter amino acid code represent the following amino acid sequences in the three letter amino acid code: EHSSKLQ (Glu-His-Ser-Ser-Lys-Leu-Gln; SEQ ID NO:10), The shorter sequences are formed by deleting amino acids from the amino terminal side of the sequence. Determinations listed in the table were carried out with substrates at 0.2 mM concentration in the PSA assay buffer (50 mM Tris/0.1M NaCl pH 7.8), except SKLQ (SEQ ID NO:1), KLQ and LQ, which were carried out in 1.4% acetonitrile/buffer and Q-AMC which was carried out in 0.2% formic acid/buffer, at pH 7.8. The entry “UD” stands for “undetectable” and means that at most, 0.1 pmole of substrate cleavage per minute per 200 pmole protease took place. Asterisks represent experiments not performed. Abbreviations are as follows: PSA (prostate specific antigen), Cath B, C, D (Cathepsins, B, C, D), Esterase (porcine liver esterase).

Cathepsin C = biological target: T2, Cathepsin C (Homo sapiens, UniProt P53634); experiment: as above; assay type: biochemical; conditions: 0.2 mM substrate, pH 7.8; SKLQ, KLQ, LQ in 1.4% acetonitrile/buffer, Q-AMC in 0.2% formic acid/buffer
T2 construct: purchased Sigma Chemical Co
T2 sequence (P53634 25-463): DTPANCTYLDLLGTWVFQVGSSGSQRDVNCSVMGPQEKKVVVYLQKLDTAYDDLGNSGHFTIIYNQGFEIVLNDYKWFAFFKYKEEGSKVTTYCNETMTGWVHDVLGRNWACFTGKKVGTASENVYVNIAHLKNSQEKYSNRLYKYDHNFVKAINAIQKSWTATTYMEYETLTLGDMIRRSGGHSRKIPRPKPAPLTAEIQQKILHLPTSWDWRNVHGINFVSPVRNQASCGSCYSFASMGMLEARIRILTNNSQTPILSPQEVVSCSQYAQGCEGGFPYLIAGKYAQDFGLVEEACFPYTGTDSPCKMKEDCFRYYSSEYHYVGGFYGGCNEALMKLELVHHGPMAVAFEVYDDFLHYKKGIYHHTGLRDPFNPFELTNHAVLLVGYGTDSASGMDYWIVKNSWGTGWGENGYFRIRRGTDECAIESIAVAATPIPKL
Experimental: as §3, §5, §6

Cathepsin B = biological target: T3, Cathepsin B (Homo sapiens, UniProt P07858); experiment: as above; assay type: biochemical; conditions: 0.2 mM substrate, pH 7.8; SKLQ, KLQ, LQ in 1.4% acetonitrile/buffer, Q-AMC in 0.2% formic acid/buffer
T3 construct: purchased Sigma Chemical Co
Experimental: as §3, §5, §6

Cathepsin D = biological target: T4, Cathepsin D (Homo sapiens, UniProt P07339); experiment: as above; assay type: biochemical; conditions: 0.2 mM substrate, pH 7.8; SKLQ, KLQ, LQ in 1.4% acetonitrile/buffer, Q-AMC in 0.2% formic acid/buffer
T4 construct: purchased Sigma Chemical Co
T4 sequence (P07339 65-412): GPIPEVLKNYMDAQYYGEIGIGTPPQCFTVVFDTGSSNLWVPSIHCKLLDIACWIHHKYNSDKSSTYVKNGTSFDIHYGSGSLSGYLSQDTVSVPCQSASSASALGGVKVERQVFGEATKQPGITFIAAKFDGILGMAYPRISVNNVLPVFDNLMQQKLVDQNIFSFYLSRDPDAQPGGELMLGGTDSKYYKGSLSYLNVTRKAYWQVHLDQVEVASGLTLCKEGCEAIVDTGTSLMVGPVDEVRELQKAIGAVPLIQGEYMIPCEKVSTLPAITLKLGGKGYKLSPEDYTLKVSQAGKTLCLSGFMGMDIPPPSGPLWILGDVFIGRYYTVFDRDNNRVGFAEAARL
Experimental: as §3, §5, §6

human kallikrein, hK1 = experiment: Peptide-AMC cleavage by purified extracellular protease; assay type: biochemical; conditions: 0.2 mM substrate, PSA assay buffer pH 7.8
Experimental: as §1, §2, §3, §4

Plasmin = biological target: T5, Plasmin (Homo sapiens, UniProt P00747); experiment: as above; assay type: biochemical; conditions: 0.2 mM substrate, PSA assay buffer pH 7.8
T5 construct: purchased Calbiochem
T5 sequence (P00747 581-810 limits assumed, species assumed): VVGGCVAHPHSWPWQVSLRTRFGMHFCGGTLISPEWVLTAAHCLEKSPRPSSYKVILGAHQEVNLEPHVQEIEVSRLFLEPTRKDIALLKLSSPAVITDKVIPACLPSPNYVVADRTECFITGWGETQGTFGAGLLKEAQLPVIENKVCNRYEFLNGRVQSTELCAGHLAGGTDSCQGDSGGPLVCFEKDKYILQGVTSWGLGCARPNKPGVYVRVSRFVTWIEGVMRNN
T5 sequence (P00747 97-580 partner limits assumed, species assumed): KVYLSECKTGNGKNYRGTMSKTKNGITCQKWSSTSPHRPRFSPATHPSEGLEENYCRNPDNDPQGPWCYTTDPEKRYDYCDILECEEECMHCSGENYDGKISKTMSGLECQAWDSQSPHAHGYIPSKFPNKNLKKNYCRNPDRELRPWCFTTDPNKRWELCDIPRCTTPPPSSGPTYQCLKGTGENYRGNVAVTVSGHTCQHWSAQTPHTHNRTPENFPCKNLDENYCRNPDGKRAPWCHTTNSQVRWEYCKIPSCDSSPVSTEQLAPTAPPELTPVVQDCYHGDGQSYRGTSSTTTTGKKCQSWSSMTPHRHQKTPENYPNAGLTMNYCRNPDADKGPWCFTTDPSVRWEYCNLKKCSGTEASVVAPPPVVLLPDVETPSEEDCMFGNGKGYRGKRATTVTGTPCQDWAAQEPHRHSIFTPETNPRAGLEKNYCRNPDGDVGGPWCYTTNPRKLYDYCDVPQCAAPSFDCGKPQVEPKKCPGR
Experimental: as §1, §2, §3, §4

Trypsin = experiment: as above; assay type: biochemical; conditions: 0.2 mM substrate, PSA assay buffer pH 7.8
Experimental: as §1, §2, §3, §4

urokinase = biological target: T6, urokinase (Homo sapiens, UniProt P00749); experiment: as above; assay type: biochemical; conditions: 0.2 mM substrate, PSA assay buffer pH 7.8
T6 construct: purchased Calbiochem
Experimental: as §1, §2, §3, §4

thrombin = biological target: T7, thrombin (Homo sapiens, UniProt P00734); experiment: as above; assay type: biochemical; conditions: 0.2 mM substrate, PSA assay buffer pH 7.8
T7 construct: purchased Sigma Chemical Co
Experimental: as §1, §2, §3, §4

Elastase = experiment: as above; assay type: biochemical; conditions: 0.2 mM substrate, PSA assay buffer pH 7.8
Experimental: as §1, §2, §3, §4

chymotrypsin = biological target: T8, chymotrypsin (Bos taurus, UniProt P00766); experiment: as above; assay type: biochemical; conditions: 0.2 mM substrate, PSA assay buffer pH 7.8
T8 construct: purchased Sigma Chemical Co
Experimental: as §1, §2, §3, §4

[2] = biological target: T9, tissue plasminogen activator (TPA) (Homo sapiens, UniProt P00750); experiment: as above; assay type: biochemical; conditions: 0.2 mM substrate, PSA assay buffer pH 7.8
T9 construct: purchased Calbiochem
T9 sequence (P00750 36-562, species assumed): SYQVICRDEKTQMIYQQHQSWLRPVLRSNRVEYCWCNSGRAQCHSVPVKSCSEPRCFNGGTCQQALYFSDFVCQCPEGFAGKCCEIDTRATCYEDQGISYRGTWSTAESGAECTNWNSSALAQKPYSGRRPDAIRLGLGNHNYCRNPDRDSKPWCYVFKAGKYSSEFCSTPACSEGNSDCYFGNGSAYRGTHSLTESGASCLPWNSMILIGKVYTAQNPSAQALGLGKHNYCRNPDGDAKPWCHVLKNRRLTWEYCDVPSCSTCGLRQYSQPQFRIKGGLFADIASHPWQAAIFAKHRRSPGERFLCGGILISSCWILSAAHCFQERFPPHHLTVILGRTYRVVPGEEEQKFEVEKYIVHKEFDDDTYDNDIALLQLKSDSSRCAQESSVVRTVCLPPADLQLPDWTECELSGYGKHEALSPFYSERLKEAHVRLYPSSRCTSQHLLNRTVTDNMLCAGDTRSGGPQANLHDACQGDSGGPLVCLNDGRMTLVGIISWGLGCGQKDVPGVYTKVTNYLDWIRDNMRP
Experimental: as §1, §2, §3, §4

[3] = Stability of PSA substrates in serum (AMC release); assay type: in vitro ADME; conditions: 0.2 mM substrate
Text: as §2, §3
Because the prodrug can be given systemically via the blood, it is useful to determine the stability of the substrates in sera from a variety of species. The substrates and experimental details are found as described in Example 1.
The amino acid sequences expressed in one letter amino acid code represent the following amino acid sequences in the three letter amino acid code: EHSSKLQ (Glu-His-Ser-Ser-Lys-Leu-Gln; SEQ ID NO:10), QNKISYQ (Gln-Asn-Lys-Ile-Ser-Tyr-Gln; SEQ ID NO:11), ENKISYQ (Glu-Asn-Lys-Ile-Ser-Tyr-Gln; SEQ ID NO:12) and ATKSKQH (Ala-Thr-Lys-Ser-Lys-Gln-His; SEQ ID NO:13). Determinations listed in the table were carried out with substrates at 0.2 mM concentration in the PSA assay buffer (50 mM Tris/0.1M NaCl pH 7.8). AMC is 7-amino-4-methylcoumarin. The human serum used was 100% for each assay. The entry “UD” stands for “undetectable”, and means that not more than 0.01 picomole of substrate per minute was cleaved.

In the case of `Cc1cc(=O)oc2cc(NC(=O)[C@H](CCC(N)=O)NC(=O)[C@H](CC(C)C)NC(=O)[C@H](CCCCN)NC(=O)[C@H](CO)NC(=O)[C@H](CO)NC(=O)[C@H](Cc3c[nH]cn3)NC(=O)N3CCOCC3)ccc12` [HSSKLQ, His-Ser-Ser-Lys-Leu-Gln] ({Morpholide-CO}-HSSKLQ-{AMC}), the “picomoles of peptide cleaved/min/200 picomoles protease: PSA” value ([1]; 0.2 mM substrate) is reported as 62.7 picomoles/min/200 picomoles pr, the Kcat [1] is reported as 0.011 s⁻¹ and the Km [1] is reported as 470 µM. The “picomoles of peptide cleaved/min/200 picomoles protease: Esterase” value (porcine liver esterase) was “UD (at most, 0.1 pmole of substrate cleavage per minute per 200 pmole protease took place)”, the “picomoles of peptide cleaved/min/200 picomoles protease: Cath C” value (Cathepsin C) was “UD (at most, 0.1 pmole of substrate cleavage per minute per 200 pmole protease took place)” and the “picomoles of peptide cleaved/min/200 picomoles protease: Cath B” value (Cathepsin B) was 17.3 picomoles/min/200 picomoles pr. The “picomoles of peptide cleaved/min/200 picomoles protease: Cath D” value (Cathepsin D) was 3.8 picomoles/min/200 picomoles pr.
With `CC[C@H](C)[C@H](NC(=O)[C@H](CCCCN)NC(=O)[C@H](CC(N)=O)NC(=O)[C@H](CCC(=O)O)NC(=O)N1CCOCC1)C(=O)N[C@@H](CO)C(=O)N[C@@H](Cc1ccc(O)cc1)C(=O)N[C@@H](CCC(N)=O)C(=O)Nc1ccc2c(C)cc(=O)oc2c1` [ENKISYQ, Glu-Asn-Lys-Ile-Ser-Tyr-Gln] ({Morpholide-CO}-ENKISYQ-{AMC}) the “Picomoles of substrate cleaved/minute/200 pmoles of indicated protease: Kallik” value (human kallikrein, hK1) was “UD (at most, 0.1 pmole of substrate cleavage per minute per 200 pmole protease took place)”, the “Picomoles of substrate cleaved/minute/200 pmoles of indicated protease: Plasmin” value (Plasmin) was 0.6 picomoles/minute/200 pmoles pr and the “Picomoles of substrate cleaved/minute/200 pmoles of indicated protease: Trypsin” value (Trypsin) was 1.8 picomoles/minute/200 pmoles pr. The “Picomoles of substrate cleaved/minute/200 pmoles of indicated protease: Urokin” value (urokinase) was “UD (at most, 0.1 pmole of substrate cleavage per minute per 200 pmole protease took place)”, the “Picomoles of substrate cleaved/minute/200 pmoles of indicated protease: Thromb” value (thrombin) was 0.3 picomoles/minute/200 pmoles pr and the “Picomoles of substrate cleaved/minute/200 pmoles of indicated protease: Elastase” value (Elastase) was 2.6 picomoles/minute/200 pmoles pr. The “Picomoles of substrate cleaved/minute/200 pmoles of indicated protease: Chymo” value (chymotrypsin) was 3.6 picomoles/minute/200 pmoles pr, the “Picomoles of substrate cleaved/minute/200 pmoles of indicated protease: TPA” value [2] was “.04 picomoles/minute/200 pmoles pr” and the “picomles AMC released/minute: Calf” value [3] was “UD (not more than 0.01 picomole of substrate per minute was cleaved)”. For the same compound, the “picomles AMC released/minute: Fetal Calf” value [3] was 9.59 picomoles/minute, the “picomles AMC released/minute: Goat” value [3] was 3.18 picomoles/minute and the “picomles AMC released/minute: Mouse” value [3] was 3.71 picomoles/minute. For the same compound, the “picomles AMC released/minute: Rat” value [3] was 11.2 picomoles/minute, the “picomles AMC released/minute: Human” value ([3]; human serum 100%) was 1.27 picomoles/minute and the “Picomoles of substrate cleaved/minute/200 pmoles of indicated protease: PSA” value ([1]; 0.2 mM substrate, PSA assay buffer pH 7.8, room temperature) was 14.4 picomoles/minute/200 pmoles pr.
In the case of `Cc1cc(=O)oc2cc(NC(=O)[C@H](CCC(N)=O)NC(=O)[C@H](CC(C)C)NC(=O)[C@H](CCCCN)NC(=O)[C@H](CO)NC(=O)N3CCOCC3)ccc12` [SKLQ, Ser-Lys-Leu-Gln] ({Morpholide-CO}-SKLQ-{AMC}), the “picomoles of peptide cleaved/min/200 picomoles protease: PSA” value ([1]; 0.2 mM substrate) is reported as 29.6 picomoles/min/200 picomoles pr, the Kcat [1] is reported as 0.020 s⁻¹ and the Km [1] is reported as 813 µM. For the same compound, the “picomoles of peptide cleaved/min/200 picomoles protease: Esterase” value (porcine liver esterase) was “UD (at most, 0.1 pmole of substrate cleavage per minute per 200 pmole protease took place)”, the “picomoles of peptide cleaved/min/200 picomoles protease: Cath C” value (Cathepsin C) was “UD (at most, 0.1 pmole of substrate cleavage per minute per 200 pmole protease took place)” and the “picomoles of peptide cleaved/min/200 picomoles protease: Cath B” value (Cathepsin B) was 31.2 picomoles/min/200 picomoles pr. For the same compound, the “picomoles of peptide cleaved/min/200 picomoles protease: Cath D” value (Cathepsin D) was 6.4 picomoles/min/200 picomoles pr.
